The source of these data is patent US8795977B2, “Method for screening a potential modulator compound of a taste receptor” (Conopco, Inc., priority 2009, dated 2014).

The test relates to Control cells (no T1R1/T1R3). The experiment in a line: Calcium-based receptor assay in control cells not expressing the receptor. It is filed as cell-based, human. The conditions noted are these: change in fluorescence (ΔF). The source says:
We developed a unique functional umami receptor assay to evaluate and quantify umami in tomato and other crude plant or food extracts using the BRET technique: to test the principle we used the donor and acceptor proteins relating to BRET-2. In short, the human T1R1 and T1R3 taste receptors were cloned and fused with Renilla luciferase (Rluc) as donor protein; green fluorescent protein-2 (GFP2) served as acceptor protein and was fused to β-arrestin-2. Both constructs were transfected into a HEK293 cell line cells) for heterologous expression of the proteins. Various mammalian cell lines have been reported to be highly suitable for expression of receptors or other proteins, with HEK293 (human embryonic kidney) cells and CHO (Chinese hamster ovary) cells being some of the most versatile and suitable ones^12. Similarly, GPCRs can be expressed in various ways as described in multiple publications, such as transient^6, 8, 13-15 or stable (constitutive or inducible)^6, 9, 16, 17 expression, depending on the nature of the experiment, the respective receptor or the available time. Upon receptor stimulation with an agonist or crude extracts, the β-arrestin-2/GFP-2 protein interacts with the activated receptor thus bringing GFP-2 in close proximity with luciferase, making energy transfer between these two proteins possible and generating a BRET signal. In the presence of oxygen the luciferase catalyses the transformation of the substrate DeepBlueC into coelenteramide, which can be measured at 395-410 nm. If GFP-2 is in close proximity to the luciferase and energy transfer takes place, the emission will shift to 510 nm; this is referred to as the BRET signal and is expressed as ratio between the acceptor (GFP-2) and the donor (Renilla luciferase). The following experiments are designed to illustrate that conventional calcium-based functional receptor assays are not suitable for measuring the effects of crude extracts; in contrast, the BRET assay (as indicated here with umami) can clearly measure specific receptor responses using crude natural extracts. Moreover, the assay is also sensitive enough for detecting differences of receptor activation between the different tomato samples. Materials & Methods: Chemicals and Media: Fluo-4 AM was from Molecular Probes (# F-14202, prepared as 5 mM stock in DMSO), DMEM (with 4.5 g/l glucose and ultraglutamine, # BE12-604F) was from Lonza, trypsin-EDTA, Lipofectamine 2000, OptiMem and FCS were obtained from Life Technologies Invitrogen. Monosodium glutamate (MSG), Inosine 5′-monophosphate as well as all other chemicals were from Sigma-Aldrich. The plasmid encoding GFP2-β-arrestin-2 was purchased from BioSignal Packard (#6310176). Coelenterazine 400A (a DeepBlueC derivative) and Coelenterazine-H were from VWR International (# BTIU10125-1 and 233903-50, respectively). All other cell culture supplies were from Greiner BioOne. Receptor Fusion Constructs, Cell Lines, and Media: The human T1R1 and human T1R3 umami receptors were fused at their C-terminal in frame to Renilla Luciferase (Rluc) using standard molecular cloning techniques and the codon-humanized pRluc-N3 vector from PerkinElmer (#6310220). For expression of the umami receptors and the construct encoding GFP-2/β-arrestin-2, HEK293 cells (human embryonic kidney cells, ATCC) were used using traditional transfection methods (see also below). HEK293 cells were maintained in DMEM and 10% FBS at 37° C./5% CO2. Tomato Extracts: The tomato extracts which served as representative natural, complex test material were prepared as follows: Frozen tomato samples (in −80° C.) were weighed and dissolved in an equal amount of water. After the seeds and locular tissues (pulp) were removed and put aside, the tomato pericarp (flesh) was ground using a mortar and pestle. The seeds and pulp were then added back to the mixture ensuring that they are well mixed and the seeds were not crushed. […]

Take `N[C@@H](CCC(=O)O)C(=O)[O-].[Na+]` [MSG, Monosodium glutamate]: the “release of intracellular calcium, Control cells (no T1R1/T1R3), average” value by setting is: (100 μM MSG) 1135; (1 mM MSG) 1060; (10 mM MSG) 1115. Moreover, the “release of intracellular calcium, Control cells (no T1R1/T1R3), meas. 1” value is 1102 (100 μM MSG), 1100 (1 mM MSG) and 1200 (10 mM MSG). The “release of intracellular calcium, Control cells (no T1R1/T1R3), meas. 2” value amounted to 1168 (100 μM MSG), 1020 (1 mM MSG) and 1030 (10 mM MSG).
